For assay [1], the target named is human T-type calcium channel (Homo sapiens, UniProt O95180). The assay is described as follows: cell-based. As to the method: A T-type calcium channel inhibitory action of sophoraflavanone G was measured by a whole-cell patch method using a human renal cell-derived cell line: […] cell forced to express a human T-type calcium channel.
In the whole-cell patch method, a barium current passing as an inward current was measured in a potential jump from −80 mV to −20 mV with the holding potential set to −80 mV using, as an external solution and an internal solution, ones having the compositions shown below. Here, for eliminating influences of a high-threshold-activated-type calcium channel, a value obtained by subtracting from a peak current a current 150 ms after the start of stimulation was used as a T-current for data analysis.
External Solution Composition
Aqueous solution containing the following: 97 mM N-methyl-D-glucamine (NMDG);
10 mM 4-(2-hydroxyethyl)-1-piperazine ethanesulfonic acid (HEPES);
40 mM tetraethylammonium chloride (TEA-Cl); and
Internal Solution Composition
Aqueous solution containing the following:
5 mM glycol ether diamine tetraacetic acid (EGTA)
In FIG. 1, the data are shown as a ratio (%) of a T-current at addition of a compound to a T-current at addition of a solvent (DMSO).
Except that sophoraflavanone G was replaced by 6-prenylnaringenin, the same procedure as in Example 1 was carried out to measure a T-type calcium channel inhibitory action of […].
Except that sophoraflavanone G was replaced by 8-prenylnaringenin, the same procedure as in Example 1 was carried out to measure a T-type calcium channel inhibitory action of […].
These […] values are values calculated by GraphPad Prism® (GraphPad Software, Inc.) using the results of Examples 1 to 3.

The subject of assay [2] is NaHS-induced hyperalgesia. The assay is described as follows: Action on NaHS-induced hyperalgesia, up-and-down method using a von Frey filament. Format: in vivo. To be noted: male ddY mouse; for Action on NaHS-induced hyperalgesia (in words): paw sole administration. As to the method:
Into the paw sole of a male ddY mouse, 0.1 nmol/paw (volume: 10 μL/paw) of NaHS (sodium hydrogen sulfide) was administered alone, […], and an action of sophoraflavanone G on NaHS-induced hyperalgesia was measured by an up-and-down method using a von Frey filament.
Here, NaHS (sodium hydrogen sulfide) is used as a H2S donor. H2S is a hyperalgesia-inducing substance which is involved in information transmission of pain through a Cav3.2 T-type calcium channel (see Kawabata A. et al. Hydrogen sulfide as a novel nociceptive messenger. Pain. 2007 November; 132(1-2): 74-81. Epub 2007 Mar. 7.).
Except that 6-prenylnaringenin was used in place of sophoraflavanone G, the same procedure as in Example 4 was carried out to measure an action of 6-prenylnaringenin on NaHS-induced hyperalgesia.
Except that 8-prenylnaringenin was used in place of sophoraflavanone G, the same procedure as in Example 4 was carried out to measure an action of 8-prenylnaringenin on NaHS-induced hyperalgesia.

The target of another assay is T1, L-type Ca2+ channel (Rattus norvegicus, UniProt P22002).
T1 construct: A 1 mm-wide ring preparation was prepared from the thoracic aorta; from tissue; host or cells: thoracic aorta ring preparation (endothelium removed) of male Wistar rats
Put plainly: K50-induced contraction in a ring preparation of a rat aorta (endothelium removed). Format: cell-based. To be noted: for Selectivity T-type over L-type calcium channel (in words): conclusion from Examples 1-3 and 7-9; for inhibition at 0.001 µM / inhibition at 0.003 µM / inhibition at 0.01 µM / inhibition at 0.03 µM / inhibition at 0.1 µM / inhibition at 0.3 µM / inhibition at 1 µM / inhibition at 3 µM: read-out: Inhibitory rate (%) on contraction by K50; for Action on L-type calcium channel (in words): specimen pre-contracted by K50, up to 3 μM. How it is done:
For the experiment, 7 to 10 week-old male Wistar rats (Japan SLC, Inc., Shizuoka, Japan) were used. These experimental animals were bred in a chamber with a 12-hour light-dark cycle maintained at a temperature of about 24° C. while they were allowed to freely take tap water and a solid feed (Oriental Yeast Co., Ltd., Tokyo, Japan).
The rats were caused to hemorrhage to death by cutting the carotid artery under anesthesia, and the thoracic aorta was extracted. Connective tissues and fat were removed from the thoracic aorta in a cooled modified Kreb's liquid. A 1 mm-wide ring preparation was prepared from the thoracic aorta, and the lumen of the specimen was rubbed with rubber to remove the endothelium.
Two 100 μm tungsten wires were inserted into the lumen of the 1 mm-wide ring preparation, and the ring preparation was transferred to a liquid bath with a volume of 10 mL. […] The other ends of tungsten wires inserted into the lumen of the ring preparation were fixed to a tension transducer, and a change in tension of the specimen was isometrically measured. Signals from the tension transducer passed through a blood pressure amplifier to be recorded by a pen recorder. An initial stretching tension of 1 g was applied in a normal Kreb's liquid, and the specimen was equilibrated for 1 hour, and then caused to contract once by a 10^−6 M phenylephrine solution. This procedure was necessary for obtaining stable results. At the end of the experiment, verapamil (Vera) (10^−5 M) and papaverine (10^−4 M) were added to completely relax the specimen. The level at this time was set to 0 for all the measurements of a change in tension.
The reagents used were as follows. • Normal Kreb's liquid: NaCl (118 mM), KCl (4.7 mM), CaCl2 (2.5 mM), MgCl2 (1.2 mM), NaHCO3 (25 mM), KH2PO4 (1.2 mM) and glucose (10 mM) were diluted with H2O to 1 L, and ventilated for 10 minutes with a mixed gas of 95% of O2 and 5% of CO2, and 2.5 mL of a 1 M CaCl2 solution was then added. • Kreb's liquid (K50): NaCl (73.9 mM), KCl (48.8 mM), CaCl2 (2.5 mM), MgCl2 (1.2 mM), NaHCO3 (25 mM), KH2PO4 (1.2 mM) and glucose (10 mM) were diluted with H2O to 1 L, and ventilated for 10 minutes with a mixed gas of 95% of O2 and 5% of CO2, and 2.5 mL of a 1 M CaCl2 solution was then added. • Acetylcholine hydrochloride (Ach, manufactured by Sigma) • Verapamil hydrochloride (Vera, manufactured by Eisai Co., Ltd. (Tokyo)) • Papaverine hydrochloride (manufactured by Sigma) 5. Results
Thereafter, the specimen was washed three times with the Normal Kreb's liquid, and to the specimen caused to pre-contract by the Kreb's liquid (K50) containing 50 mM potassium ions, 1 μL of 1 μM of sophoraflavanone G (final concentration: 0.001 μM) dissolved in DMSO, 2 μL of 1 μM of the sophoraflavanone G (final concentration: 0.003 μM), 7 μL of 1 μM of the sophoraflavanone G (final concentration: 0.01 μM), 2 μL of 10 μM of the sophoraflavanone G (final concentration: 0.03 μM), 7 μL of 10 μM of the sophoraflavanone G (final concentration: 0.1 μM), 2 μL of 10 μM of the sophoraflavanone G (final concentration: 0.3 μM), 7 μL of 100 μM of the sophoraflavanone G (final concentration: 1 μM) and […] of the sophoraflavanone G (final concentration: 3 μM) were accumulatively added in a liquid bath containing 10 mL of the Kreb's liquid.
Except that 6-prenylnaringenin was used in place of sophoraflavanone G, the same procedure as in Example 7 was carried out to examine effects on an L-type Ca^2+ channel.
Except that 8-prenylnaringenin was used in place of sophoraflavanone G, the same procedure as in Example 7 was carried out to examine effects on an L-type Ca^2+ channel.

Setting [3] is: HEK293, read-out: Inhibition rate (%).
Setting [4] is: NaHS 0.1 nmol/paw sole + compound 0.1 nmol/paw sole.
The mark [5] stands for this setting: NaHS 0.1 nmol/paw sole + compound 1 nmol/paw sole.
Where [6] appears, read: NaHS 0.1 nmol/paw sole + compound 10 nmol/paw sole.
[7] abbreviates: 0.001 μM final concentration, accumulatively added, rat aorta ring.
Where [8] appears, read: 0.003 μM final concentration, accumulatively added, rat aorta ring.
The mark [9] stands for this setting: 0.01 μM final concentration, accumulatively added, rat aorta ring.
Setting [10] is: 0.03 μM final concentration, accumulatively added, rat aorta ring.
Setting [11] is: 0.1 μM final concentration, accumulatively added, rat aorta ring.
The mark [12] stands for this setting: 0.3 μM final concentration, accumulatively added, rat aorta ring.
Where [13] appears, read: 1 μM final concentration, accumulatively added, rat aorta ring.
Where [14] appears, read: 3 μM final concentration, accumulatively added, rat aorta ring.

Data on 3 molecules can be found in patent publication US10633358B2, “T-type calcium channel inhibitor” (KINKI UNIVERSITY, priority 2013, dated 2020).

Structures are written as SMILES. Read-outs that look alike come from different tables or passages of the source.

human T-type calcium channel, sequence (O95180 whole entry): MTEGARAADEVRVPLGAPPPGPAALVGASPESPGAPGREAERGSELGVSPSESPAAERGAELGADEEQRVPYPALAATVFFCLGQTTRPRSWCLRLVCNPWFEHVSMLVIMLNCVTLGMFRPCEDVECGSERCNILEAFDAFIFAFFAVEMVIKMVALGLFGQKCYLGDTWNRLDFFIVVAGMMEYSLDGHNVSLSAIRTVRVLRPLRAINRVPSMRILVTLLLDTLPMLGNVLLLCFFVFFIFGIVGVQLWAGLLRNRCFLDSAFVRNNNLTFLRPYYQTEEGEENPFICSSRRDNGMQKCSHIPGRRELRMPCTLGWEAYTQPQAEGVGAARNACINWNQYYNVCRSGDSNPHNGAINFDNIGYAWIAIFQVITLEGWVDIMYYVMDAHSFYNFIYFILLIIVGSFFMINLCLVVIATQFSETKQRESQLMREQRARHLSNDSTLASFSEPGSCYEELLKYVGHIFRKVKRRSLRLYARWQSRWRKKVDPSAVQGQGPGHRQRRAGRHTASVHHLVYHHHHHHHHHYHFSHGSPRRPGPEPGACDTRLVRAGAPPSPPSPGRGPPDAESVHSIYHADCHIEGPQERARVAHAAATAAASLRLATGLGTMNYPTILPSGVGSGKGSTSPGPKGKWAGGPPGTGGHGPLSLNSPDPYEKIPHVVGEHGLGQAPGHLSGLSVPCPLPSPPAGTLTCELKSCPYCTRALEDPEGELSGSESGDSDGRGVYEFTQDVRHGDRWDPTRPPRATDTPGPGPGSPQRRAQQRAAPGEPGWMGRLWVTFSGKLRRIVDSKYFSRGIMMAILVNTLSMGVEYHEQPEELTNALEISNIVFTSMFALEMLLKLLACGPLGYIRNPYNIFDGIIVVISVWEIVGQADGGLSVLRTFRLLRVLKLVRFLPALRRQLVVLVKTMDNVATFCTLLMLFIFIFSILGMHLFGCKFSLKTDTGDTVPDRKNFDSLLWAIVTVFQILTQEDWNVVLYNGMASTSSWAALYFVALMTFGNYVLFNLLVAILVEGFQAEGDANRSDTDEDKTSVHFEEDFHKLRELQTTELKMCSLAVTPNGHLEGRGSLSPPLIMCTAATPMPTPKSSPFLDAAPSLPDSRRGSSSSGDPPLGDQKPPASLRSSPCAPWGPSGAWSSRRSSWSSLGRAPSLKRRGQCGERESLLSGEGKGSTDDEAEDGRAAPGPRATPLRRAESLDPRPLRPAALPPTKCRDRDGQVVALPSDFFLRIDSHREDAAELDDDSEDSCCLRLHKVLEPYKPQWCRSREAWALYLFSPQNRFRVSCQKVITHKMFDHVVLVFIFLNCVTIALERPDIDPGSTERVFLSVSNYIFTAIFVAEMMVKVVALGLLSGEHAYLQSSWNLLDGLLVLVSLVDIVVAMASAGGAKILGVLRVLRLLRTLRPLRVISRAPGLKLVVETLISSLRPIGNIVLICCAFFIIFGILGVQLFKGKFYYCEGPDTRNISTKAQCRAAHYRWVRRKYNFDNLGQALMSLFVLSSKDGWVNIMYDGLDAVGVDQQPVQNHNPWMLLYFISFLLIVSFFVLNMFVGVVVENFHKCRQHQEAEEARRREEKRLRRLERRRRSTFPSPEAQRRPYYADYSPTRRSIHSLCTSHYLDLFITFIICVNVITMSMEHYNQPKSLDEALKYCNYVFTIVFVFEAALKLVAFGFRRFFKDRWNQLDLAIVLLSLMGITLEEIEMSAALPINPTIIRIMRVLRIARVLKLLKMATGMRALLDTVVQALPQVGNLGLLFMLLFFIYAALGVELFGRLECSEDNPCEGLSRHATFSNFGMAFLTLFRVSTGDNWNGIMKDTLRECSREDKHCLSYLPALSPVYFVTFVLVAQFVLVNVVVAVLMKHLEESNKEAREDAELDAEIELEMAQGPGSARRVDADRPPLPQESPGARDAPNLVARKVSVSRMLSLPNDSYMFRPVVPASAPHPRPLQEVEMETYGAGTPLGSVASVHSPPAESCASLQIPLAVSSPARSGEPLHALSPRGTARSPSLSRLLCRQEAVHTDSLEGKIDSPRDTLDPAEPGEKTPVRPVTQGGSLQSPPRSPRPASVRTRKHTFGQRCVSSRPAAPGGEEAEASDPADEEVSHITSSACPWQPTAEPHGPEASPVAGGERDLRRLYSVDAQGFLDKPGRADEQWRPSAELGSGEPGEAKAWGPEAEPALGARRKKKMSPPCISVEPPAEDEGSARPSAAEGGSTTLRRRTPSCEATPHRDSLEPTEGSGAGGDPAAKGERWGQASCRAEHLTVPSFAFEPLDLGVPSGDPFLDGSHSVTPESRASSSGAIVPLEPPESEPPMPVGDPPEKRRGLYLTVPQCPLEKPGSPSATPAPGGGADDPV

For `CC(C)=CCc1c(O)cc2c(c1O)C(=O)C[C@@H](c1ccc(O)cc1)O2` [6-Prenylnaringenin, (2S)-5,7-dihydroxy-2,3-dihydro-2-(4-hydroxyphenyl)-6-(3-methyl-2-butenyl)-4H-1-benzopyran-4-one], in assay [1] (setting [3]), the inhibition at 0.3 µM stood at 0%, the inhibition at 1 µM came to 82.7% and the inhibition at 3 µM turned out to be 99%. Also, the “Hyperalgesia threshold (g) Average value ± standard error” value in assay [2] (setting [4]) amounted to 0.28 ± 0.07 g. The “Hyperalgesia threshold (g) Average value ± standard error” value in assay [2] (setting [5]) came to 0.31 ± 0.06 g. In assay [2] (setting [6]), the “Hyperalgesia threshold (g) Average value ± standard error” value was 0.52 ± 0.09 g. Also, the “Action on NaHS-induced hyperalgesia (in words)” value in assay [2] was “inhibits NaHS-induced hyperalgesia”. For the same molecule, on L-type Ca2+ channel, the “Selectivity T-type over L-type calcium channel (in words)” value was “T-type calcium channel-specific inhibitor”, the inhibition at 0.001 µM came to 0%, the inhibition at 0.003 µM worked out at 0% and the inhibition at 0.01 µM is 4.1%. In addition, on L-type Ca2+ channel, the inhibition at 0.03 µM is 6.1%, the inhibition at 0.1 µM was 4.1%, the inhibition at 0.3 µM is 4.1% and the inhibition at 1 µM is 4.1%. At L-type Ca2+ channel, the inhibition at 3 µM amounted to 4.1% and the “Action on L-type calcium channel (in words)” value is reported as “does not act on an L-type calcium channel”.

Consider `CC(C)=CCc1c(O)cc(O)c2c1O[C@H](c1ccc(O)cc1)CC2=O` [8-Prenylnaringenin, (2S)-5,7-dihydroxy-2,3-dihydro-2-(4-hydroxyphenyl)-8-(3-methyl-2-butenyl)-4H-1-benzopyran-4-one], for which the inhibition at 0.3 µM in assay [1] (HEK293, compound concentration 300 nM, T-current, HEK 293 cell expressing human T-type calcium channel, read-out: Inhibition rate (%)) was found to be 16.4%; at L-type Ca2+ channel (setting [12]), 14.8%. The inhibition at 1 µM in assay [1] (HEK293, compound concentration 1000 nM, T-current, HEK 293 cell expressing human T-type calcium channel, read-out: Inhibition rate (%)) amounted to 64.9%; at L-type Ca2+ channel (setting [13]), 22.2%. For the same molecule, the inhibition at 3 µM in assay [1] (HEK293, compound concentration 3000 nM, T-current, HEK 293 cell expressing human T-type calcium channel, read-out: Inhibition rate (%)) was found to be 91%; on L-type Ca2+ channel (setting [14]), 25.9%. Moreover, the inhibition at 10 µM in assay [1] (HEK293, compound concentration 10000 nM, T-current, HEK 293 cell expressing human T-type calcium channel, read-out: Inhibition rate (%)) was determined as 99.9%. For the same molecule, the “Hyperalgesia threshold (g) Average value ± standard error” value turned out to be 0.23 ± 0.04 g in assay [2] (setting [4]), 0.41 ± 0.04 g in assay [2] (setting [5]) and 0.55 ± 0.05 g in assay [2] (setting [6]). Moreover, in assay [2], the “Action on NaHS-induced hyperalgesia (in words)” value is on record as “inhibits NaHS-induced hyperalgesia”. For the same molecule, at L-type Ca2+ channel (setting [7]), the inhibition at 0.001 µM stood at 0%. Besides, the inhibition at 0.003 µM on L-type Ca2+ channel (setting [8]) worked out at 0%. For the same molecule, the inhibition at 0.01 µM on L-type Ca2+ channel (setting [9]) turned out to be 7.4%. Further, at L-type Ca2+ channel (setting [10]), the inhibition at 0.03 µM stood at 0%. Further, the inhibition at 0.1 µM on L-type Ca2+ channel (setting [11]) was determined as 11.1%. The “Selectivity T-type over L-type calcium channel (in words)” value on L-type Ca2+ channel is given as “T-type calcium channel-specific inhibitor”. On L-type Ca2+ channel, the “Action on L-type calcium channel (in words)” value is “does not act on an L-type calcium channel”.

As for `C=C(C)[C@H](CC=C(C)C)Cc1c(O)cc(O)c2c1O[C@H](c1ccc(O)cc1O)CC2=O` [Sophoraflavanone G, (2S)-5,7-dihydroxy-2,3-dihydro-2-(2,4-dihydroxyphenyl)-8-[(R)-5-methyl-2-(1-methylethenyl)-4-hexenyl]-4H-1-benzopyran-4-one], the inhibition at 0.5 µM in assay [1] (setting [3]) stood at 25.9%. Moreover, the inhibition at 1 µM in assay [1] (setting [3]) came to 61.1%; on L-type Ca2+ channel (setting [13]), 11.1%. Besides, the figures for the inhibition at 3 µM (in assay [1] (setting [3]); at L-type Ca2+ channel (setting [14])) were 97.7% and 8.3%, respectively. For the same molecule, the figures for the “Hyperalgesia threshold (g) Average value ± standard error” value in assay [2] (NaHS 0.1 nmol/paw sole + compound 1 pmol/paw sole), in assay [2] (NaHS 0.1 nmol/paw sole + compound 10 pmol/paw sole) and in assay [2] (NaHS 0.1 nmol/paw sole + compound 30 pmol/paw sole) were 0.11 ± 0.04 g, 0.35 ± 0.07 g and 0.34 ± 0.10 g, respectively. Besides, the “Action on NaHS-induced hyperalgesia (in words)” value in assay [2] is recorded as “inhibits NaHS-induced hyperalgesia”. Further, the inhibition at 0.001 µM on L-type Ca2+ channel (setting [7]) came to 0%. For the same molecule, the inhibition at 0.003 µM at L-type Ca2+ channel (setting [8]) was 0%. Besides, the inhibition at 0.01 µM on L-type Ca2+ channel (setting [9]) stood at 5.6%. The inhibition at 0.03 µM on L-type Ca2+ channel (setting [10]) came out at 5.6%. Moreover, the inhibition at 0.1 µM on L-type Ca2+ channel (setting [11]) worked out at 5.6%. Moreover, the inhibition at 0.3 µM at L-type Ca2+ channel (setting [12]) was determined as 5.6%. Moreover, the “Selectivity T-type over L-type calcium channel (in words)” value on L-type Ca2+ channel is “T-type calcium channel-specific inhibitor”. Also, the “Action on L-type calcium channel (in words)” value on L-type Ca2+ channel is “does not act on an L-type calcium channel”.
